The results in this text go back to patent US12668584B2, “Heterocyclic compounds as kinase inhibitors for therapeutic uses” (National Health Research Institutes, priority 2019, dated 2026).

The target of assay [1] is T1, fms-like tyrosine kinase 3 (FLT3) (Homo sapiens, UniProt P36888).
T1 sequence (P36888 27-993): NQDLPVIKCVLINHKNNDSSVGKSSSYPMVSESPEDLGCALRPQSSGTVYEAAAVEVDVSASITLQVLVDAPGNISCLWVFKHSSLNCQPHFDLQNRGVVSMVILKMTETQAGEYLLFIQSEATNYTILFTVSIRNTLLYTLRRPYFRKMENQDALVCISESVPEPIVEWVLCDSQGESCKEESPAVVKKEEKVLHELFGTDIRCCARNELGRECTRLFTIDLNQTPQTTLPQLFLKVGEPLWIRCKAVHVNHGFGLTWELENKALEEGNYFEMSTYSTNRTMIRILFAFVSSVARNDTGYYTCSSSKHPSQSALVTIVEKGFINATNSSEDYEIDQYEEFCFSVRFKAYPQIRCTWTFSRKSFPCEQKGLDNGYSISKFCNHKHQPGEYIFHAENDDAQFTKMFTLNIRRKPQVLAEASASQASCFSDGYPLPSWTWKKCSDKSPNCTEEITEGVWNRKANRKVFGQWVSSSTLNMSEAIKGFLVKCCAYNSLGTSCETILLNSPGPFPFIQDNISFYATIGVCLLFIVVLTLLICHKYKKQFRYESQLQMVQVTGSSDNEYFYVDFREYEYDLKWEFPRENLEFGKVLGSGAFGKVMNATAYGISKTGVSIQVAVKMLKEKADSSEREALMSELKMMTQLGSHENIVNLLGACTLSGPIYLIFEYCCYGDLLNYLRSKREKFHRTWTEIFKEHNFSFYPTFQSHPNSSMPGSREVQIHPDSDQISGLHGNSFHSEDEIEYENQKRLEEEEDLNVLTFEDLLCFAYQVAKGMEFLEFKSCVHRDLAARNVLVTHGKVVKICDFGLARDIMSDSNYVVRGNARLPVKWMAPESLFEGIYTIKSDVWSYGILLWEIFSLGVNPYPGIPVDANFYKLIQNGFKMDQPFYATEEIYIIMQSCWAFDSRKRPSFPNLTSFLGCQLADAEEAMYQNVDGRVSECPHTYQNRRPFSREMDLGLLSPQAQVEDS
Nature of the assay: HotSpot kinase profiling, FLT3. Format: biochemical. The settings on record: HotSpot assay, 10 μM ATP; IC50 of kinase divided by that of CSF1R. Here is the method: A study was conducted to determine kinase selectivity of compounds 27 and 67. More specifically, each compound was tested for inhibitory activity of CSF1R kinase, as compared to that of seven other kinases, i.e., Aurora A, Aurora B, tyrosine-protein kinase Kit (c-Kit), fms-like tyrosine kinase 3 (FLT3), platelet-derived growth factor receptor (PDGFR) A, PDGFR B, and discoidin domain receptor tyrosine kinase 1 (DDR1).
In vitro profiling of the kinase panel was performed at Reaction Biology Corporation (www.reactionbiology.com, Malvern, PA) using the “HotSpot” assay platform. Briefly, specific kinase/substrate pairs along with required cofactors were prepared in a reaction buffer containing 20 mM Hepes pH 7.5, 10 mM MgCl2, 1 mM EGTA, 0.02% Brij35, 0.02 mg/ml BSA, 0.1 mM NA3VO4, 2 mM DTT, and 1% DMSO. Compound 27 or 67 was added. 20 minutes later, a mixture of ATP (Sigma, St. Louis MO) and ^33P ATP (Perkin Elmer, Waltham MA) was added to the resulting reaction solution to give a final concentration of 10 μM. The reaction was carried out at room temperature for 120 min., followed by spotting the reaction solution onto P81 ion exchange filter paper (Whatman Inc., Piscataway, NJ). Unbound phosphate was removed by extensive washing filters in 0.75% phosphoric acid. […] Selectivity, expressed as an IC50 ratio, was determined by dividing the IC50 value of a kinase, e.g., Aurora A, by that of CSF1R.

Assay [2] concerns BaF3-CSF1R-1600 cells (express ETV6-CSF1R fusion protein). Nature of the assay: MTS cell viability assay, BaF3-CSF1R-1600. The assay is classed as cell-based. The settings on record: 72 h, read-out: Cellular Proliferation Assay BaF3-CSF1R GI50. The method in brief: (§1)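 Cells seeded 16 h beforehand (10000 M-NFS-60 or 8000 BaF3-CSF1R-1600 per well), then exposed 72 h to test compounds in RPMI1640 with 10% FBS at 37 °C. Viability read by MTS absorbance at 490 nm; GI50 is the concentration giving 50% viability reduction versus DMSO vehicle.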
For orientation: Formazan colour is commonly taken as a measure of viable cells.

Assay [3] concerns M-NFS-60 cells. Description: MTS cell viability assay, M-NFS-60. The assay is classed as cell-based. The settings on record: 72 h, read-out: Cellular Proliferation Assay M-NFS-60 (nM) GI50. The gist of the method:
as §1

`CN(C)c1ccc2c(Oc3ccc4c(ccn4C(=O)NCc4ccc(C(F)(F)F)nc4)c3)ncnc2c1` [Compound 67, 5-((7-(dimethylamino)quinazolin-4-yl)oxy)-N-((6-(trifluoromethyl)pyridin-3-yl)methyl)-1H-indole-1-carboxamide]: in assay [1], the “IC50 ratio FLT3 / CSF1R” value was “+++ (+++: 1000 > IC50 ratio > 100)”. Besides, the GI50 in assay [2] was in the range of 20 to 100 nM; in assay [3], 100 to 1000 nM.
As for `CN(C)c1ccc2c(Oc3ccc(NC(=O)NCc4ccc(C(F)(F)F)nc4)cc3)ncnc2c1` [Compound 27, 1-(4-((7-(dimethylamino)quinazolin-4-yl)oxy)phenyl)-3-((6-(trifluoromethyl)pyridin-3-yl)methyl)urea], the “IC50 ratio FLT3 / CSF1R” value in assay [1] was “+++ (+++: 1000 > IC50 ratio > 100)”. The GI50 in assay [2] and in assay [3] was 20 to 100 nM throughout.
